Measured values: publication PMC10743086, “Immunofluorescence-Based Assay for High-Throughput Analysis of Multidrug Resistance Markers in Non-Small Cell Lung Carcinoma Patient-Derived Cells” (Diagnostics, 2023)

What was measured:
Format in all cases: cell-based, human
NCI-H460 cells = test: Cytotoxicity by immunofluorescence cell scoring (cell counts), NSCLC cell line; settings: Homo sapiens, NCI-H460, 24 h, 24 h treatment
Outline: (§1)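 Compounds added 48 h after seeding, then 24 h exposure. Cells fixed in 4% paraformaldehyde, BSA-blocked, co-stained for ABCB1 with CK8/18 to separate cancer from stromal cells; 4x automated imaging. Cytotoxicity from cell-count scoring; ABCB1 expression from multi-wavelength cell scoring.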

[1] = tested on: Non-cancer cells (CK8/18-) of patient-derived NSCLC cultures; test: Cytotoxicity in patient-derived NSCLC cultures, non-cancer cells; settings: Homo sapiens, 168 h, 7 days treatment
Outline: (§2)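 First, tumour pieces are dissociated at 37 °C for 90 min and cultured at 37 °C, 5% CO2 until confluent. Then cells are seeded at 1000 per well and exposed to drugs for 7 days starting 72 h later. Finally, fixed cells are immunostained for CK8/18 plus ABCC1 or ABCG2.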

[2] = tested on: ABCC1 expression in cancer cells (CK8/18+); test: Immunofluorescence assay of ABCC1 expression in patient-derived NSCLC cultures; settings: 7 days
Outline: as §2

NCI-H460/R cells = test: Cytotoxicity by immunofluorescence cell scoring (cell counts), multidrug-resistant NSCLC cell line; settings: for IC50: Homo sapiens, 24 h treatment
Outline: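 ABCB1-overexpressing NCI-H460/R cells, doxorubicin-selected, treated 48 h after seeding for 24 h. Cytotoxicity from automated imaging cell counts after fixation and CK8/18 plus MDR-marker immunostaining, using cell-scoring analysis.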

[3] = tested on: ABCB1 expression in cancer cells (CK8/18+); test: Immunofluorescence assay of ABCB1 expression in patient-derived NSCLC cultures; settings: 7 days
Outline: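 Read-out is immunofluorescence, with cytokeratin 8/18 marking cancer cells and CK8/18-negative cells counted as non-cancer, co-stained for ABC transporters. Patient-derived NSCLC cultures at 1000 cells per well received compounds 72 h post-seeding for 7 days.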

[4] = tested on: Cancer cells (CK8/18+) of patient-derived NSCLC cultures; test: Cytotoxicity in patient-derived NSCLC cultures, cancer cells; settings: Homo sapiens, 168 h, 7 days treatment
Outline: as §2

[5] = tested on: ABCB1 expression in MRC-5 cells; test: Immunofluorescence assay of MDR marker ABCB1 expression; settings: five concentrations, 24 h
Outline: as §1

MRC-5 cells = test: Cytotoxicity by immunofluorescence cell scoring (cell counts), normal fibroblasts; settings: Homo sapiens, 24 h treatment
Outline: as §1

[6] = NCI-H460 (co-culture with MRC-5)
[7] = culture TR58, non-cancer cells (CK8/18-)
[8] = culture TR64, non-cancer cells (CK8/18-)
[9] = culture TR65, non-cancer cells (CK8/18-)
[10] = culture TR84, non-cancer cells (CK8/18-)
[11] = culture TR87, non-cancer cells (CK8/18-)
[12] = culture TR58, cancer cells (CK8/18+)
[13] = culture TR64, cancer cells (CK8/18+)
[14] = culture TR65, cancer cells (CK8/18+)
[15] = culture TR84, cancer cells (CK8/18+)
[16] = culture TR87, cancer cells (CK8/18+)
[17] = NCI-H460/R (co-culture with MRC-5)
[18] = MRC-5 (co-culture with NCI-H460)
[19] = MRC-5 (co-culture with NCI-H460/R)
[20] = MRC5, 24 h, MRC-5 (co-culture with NCI-H460)
[21] = MRC5, 24 h, MRC-5 (co-culture with NCI-H460/R)

SMILES	IC50 (NCI-H460 cells; [6])	IC50 (NCI-H460 cells; NCI-H460 monoculture)	IC50 [1, 7]	IC50 [1, 8]	IC50 [1, 9]	IC50 [1, 10]	IC50 [1, 11]	ABCC1 expression [2, 12]	ABCC1 expression [2, 13]	ABCC1 expression [2, 14]	ABCC1 expression [2, 15]	ABCC1 expression [2, 16]	IC50 (NCI-H460/R cells; [17])	IC50 (NCI-H460/R cells; NCI-H460/R monoculture)	ABCB1 Expression [3, 12]	ABCB1 Expression [3, 13]	ABCB1 Expression [3, 14]	ABCB1 Expression [3, 15]	ABCB1 Expression [3, 16]	IC50 [4, 12]	further results
CC(=O)O[C@H]1C(=O)[C@@]2(C)[C@H]([C@H](OC(=O)c3ccccc3)[C@]3(O)C[C@H](OC(=O)[C@H](O)[C@@H](NC(=O)c4ccccc4)c4ccccc4)C(C)=C1C3(C)C)[C@]1(OC(C)=O)CO[C@@H]1C[C@@H]2O [Paclitaxel, paclitaxel]	339 nM	381 nM	1400 nM	1950 nM	1400 nM	312 nM	1870 nM	no change	increase (An increase in ABCB1, ABCC1, or ABCG2 expression of at least 20% at a minimum of one concentration is shown in the table.)	increase (An increase in ABCB1, ABCC1, or ABCG2 expression of at least 20% at a minimum of one concentration is shown in the table.)	increase (An increase in ABCB1, ABCC1, or ABCG2 expression of at least 20% at a minimum of one concentration is shown in the table.)	increase (An increase in ABCB1, ABCC1, or ABCG2 expression of at least 20% at a minimum of one concentration is shown in the table.)	> 5000 nM	> 5000 nM	increase (An increase in ABCB1, ABCC1, or ABCG2 expression of at least 20% at a minimum of one concentration is shown in the table.)	increase (An increase in ABCB1, ABCC1, or ABCG2 expression of at least 20% at a minimum of one concentration is shown in the table.)	increase (An increase in ABCB1, ABCC1, or ABCG2 expression of at least 20% at a minimum of one concentration is shown in the table.)	increase (An increase in ABCB1, ABCC1, or ABCG2 expression of at least 20% at a minimum of one concentration is shown in the table.)	increase (An increase in ABCB1, ABCC1, or ABCG2 expression of at least 20% at a minimum of one concentration is shown in the table.)	1180 nM	IC50 [4, 13]: 1350 nM; IC50 [4, 14]: 1180 nM; IC50 [4, 15]: 2570 nM; IC50 [4, 16]: 4790 nM; ABCB1 Expression [5, 18]: no change; ABCB1 Expression [5, 19]: no change; ABCB1 Expression ([5]; MRC-5 monoculture): no change; IC50 (MRC-5 cells; [20]): > 5 µM; IC50 (MRC-5 cells; [21]): > 5 µM; IC50 (MRC-5 cells; MRC5, 24 h, MRC-5 monoculture): > 5 µM
Nc1nc2[nH]cc(CCc3ccc(C(=O)N[C@@H](CCC(=O)O)C(=O)O)cc3)c2c(=O)[nH]1 [Pemetrexed, pemetrexed]	> 300000 nM	> 300000 nM	> 300000 nM	> 300000 nM	25200 nM	> 300000 nM	> 300000 nM	no change	no change	increase (An increase in ABCB1, ABCC1, or ABCG2 expression of at least 20% at a minimum of one concentration is shown in the table.)	increase (An increase in ABCB1, ABCC1, or ABCG2 expression of at least 20% at a minimum of one concentration is shown in the table.)	increase (An increase in ABCB1, ABCC1, or ABCG2 expression of at least 20% at a minimum of one concentration is shown in the table.)	> 300000 nM	> 300000 nM	no change	no change	no change	increase (An increase in ABCB1, ABCC1, or ABCG2 expression of at least 20% at a minimum of one concentration is shown in the table.)	increase (An increase in ABCB1, ABCC1, or ABCG2 expression of at least 20% at a minimum of one concentration is shown in the table.)	181000 nM	IC50 [4, 13]: 252000 nM; IC50 [4, 14]: 231000 nM; IC50 [4, 15]: > 300000 nM; IC50 [4, 16]: > 300000 nM; ABCB1 Expression [5, 18]: no change; ABCB1 Expression [5, 19]: no change; ABCB1 Expression ([5]; MRC-5 monoculture): no change; IC50 (MRC-5 cells; [20]): > 300 µM; IC50 (MRC-5 cells; MRC5, 24 h, MRC-5 monoculture): > 300 µM; IC50 (MRC-5 cells; MRC5, MRC-5 (co-culture with NCI-H460/R)): > 300 µM
CCC1=C[C@@H]2CN(C1)Cc1c([nH]c3ccccc13)[C@@](C(=O)OC)(c1cc3c(cc1OC)N(C)[C@H]1[C@@](O)(C(=O)OC)[C@H](OC(C)=O)[C@]4(CC)C=CCN5CC[C@]31[C@@H]54)C2 [Vinorelbine]	33.3 nM	36.6 nM	160 nM	184 nM	32.8 nM	33.9 nM	361 nM	no change	increase (An increase in ABCB1, ABCC1, or ABCG2 expression of at least 20% at a minimum of one concentration is shown in the table.)	increase (An increase in ABCB1, ABCC1, or ABCG2 expression of at least 20% at a minimum of one concentration is shown in the table.)	increase (An increase in ABCB1, ABCC1, or ABCG2 expression of at least 20% at a minimum of one concentration is shown in the table.)	increase (An increase in ABCB1, ABCC1, or ABCG2 expression of at least 20% at a minimum of one concentration is shown in the table.)	838 nM	990 nM	no change	increase (An increase in ABCB1, ABCC1, or ABCG2 expression of at least 20% at a minimum of one concentration is shown in the table.)	increase (An increase in ABCB1, ABCC1, or ABCG2 expression of at least 20% at a minimum of one concentration is shown in the table.)	increase (An increase in ABCB1, ABCC1, or ABCG2 expression of at least 20% at a minimum of one concentration is shown in the table.)	increase (An increase in ABCB1, ABCC1, or ABCG2 expression of at least 20% at a minimum of one concentration is shown in the table.)	129 nM	resistance of NCI-H460/R cells compared to the NCI-H460 cells (NCI-H460/R cells; ratio of IC50 values, monocultures): 27 fold; IC50 [4, 13]: 172 nM; IC50 [4, 14]: > 1000 nM; IC50 [4, 15]: 176 nM; IC50 [4, 16]: > 1000 nM; ABCB1 Expression [5, 18]: no change; ABCB1 Expression [5, 19]: no change; ABCB1 Expression ([5]; MRC-5 monoculture): no change; IC50 (MRC-5 cells; [20]): 0.477 µM; IC50 (MRC-5 cells; [21]): > 1 µM; IC50 (MRC-5 cells; MRC5, 24 h, MRC-5 monoculture): > 1 µM
